Laboratory results: publication PMC12455397 (Angewandte Chemie (International Ed. in English), 2025)

Columns and labels:
[1] = system: cGAS-STING pathway in macrophage-derived THP-1 cells; test: cGAS-STING pathway in THP-1 macrophages (WB); assay type: cell-based; conditions: 100 µM, 24 h; cGAMP 4 µg/mL 6 h
[2] = system: differentiated THP1 macrophages (WT); conditions: for AKR1B10 FC / CASP1 FC / COL1A1 FC / COL4A1 FC / COL4A2 FC / CYP1B1 FC / GPX1 FC / GPX4 FC / IFNAR1 FC / IFNAR2 FC / IFNGR1 FC / IFNGR2 FC / IL1B FC / IRF3 FC / LAMB1 FC / LAMB4 FC / MMP8 FC / MMP9 FC / MMP12 FC / NLRP3 FC / NOD2 FC / NOXA1 FC / SOCS1 FC / SOCS3 FC / SOD1 FC / SOD2 FC / STAT1 FC / TBK1 FC / TLR4 FC / TNFRSF1B FC / TRAP1 FC / cGAS FC: Table S3, THP-1, 12 h; for NQO1 upregulation at 24 h: 10 µM (footnote * of Figure 7c)
[3] = system: Nrf2-regulated genes (AKR1B10, NQO1, TRXR1, HO-1) in HaCaT human keratinocytes; test: HaCaT cell assay, RT-qPCR of Nrf2-regulated genes; assay type: cell-based; conditions: WT HaCaT, 3, 1 and 0.33 µM, 5 h, normalized to TBP
human Keap1 Kelch = human Keap1 Kelch (Homo sapiens, UniProt Q14145); test: Fluorescence polarization (FP) competition assay with Cy5-Nrf2 peptide probe; conditions: for Ki: ≥3 individual measurements; for ligand efficiency (LE): from FP Ki
[4] = system: Nrf2 KO THP1 cells differentiated into macrophages; test: RNA sequencing transcriptome analysis, Nrf2 KO THP-1 macrophages; assay type: cell-based; conditions: 12 h, CDDO-Me 0.1 µM, DMF, 24, 28 10 µM, KI-696 1 µM
[5] = system: NQO1 mRNA in BEAS-2B cells; test: qPCR-based BEAS-2B cell assay (NQO1 mRNA); design: species or system human; conditions: mean ± SEM, 2-4 independent experiments
Experimental: RT-qPCR were stimulated with compounds or DMSO diluted in DMEM and incubated for 24 h. DMSO was added accordingly to highest percentage compound volume added.
Upon 24 hour compound stimulation, the cells were trypsinized, washed, spun down and resuspended in 70 μL of ice-cold Pierce RIPA lysis buffer (Thermo Scientific) supplemented with 10 mM NaF, 1× complete protease cocktail inhibitor (Roche), and 5 IU mL-1 benzonase (Sigma), respectively. The protein concentrations were determined using the BCA protein assay kit (Thermo Scientific) and samples was equalized accordingly to the sample of lowest protein concentration. 1×XT sample buffer (Bio-Rad) and 1×XT reducing agent (Bio-Rad) were added to the samples, and lysates were denatured by boiling for 5 min at 95 °C. Denatured samples was separated by SDS-PAGE on a 4–20% Criterion TGX precast gradient gel (Bio-Rad). The gel ran initially for 20 min at 70 V and 45 min at 120 V and was then transferred onto a PVDF membrane (Bio-Rad) using a Trans-Blot Turbo transfer system. […]
Upon 5 hour compound stimulation, RNA was extracted from the cells using the High Pure RNA Isolation Kit (Roche, 11828665001) according to the manufacturer’s instructions. […] The quality and purity of the RNAs were assessed by Nanodrop spectrometry (DeNovix DS-11). Using the TaqMan detection systems, the gene expression of HO-1 (HMOX-1), NQO1, AKR1B10, and TRXR1 was determined by real-time PCR. […] The commercially available TaqMan assay (Thermo Fischer Scientific, cat. no. 4392938) was used, and samples were analyzed in a final volume of 10 μL reaction mix containing 5 μL of master mix, 0.2 μL of RT enzyme, 2.3 μL of nuclease-free water, […] (TATA-Box Binding Protein/TBP; […]
Hs00917067_m1, Thermo Fisher), and 2 μL of pure RNA. The samples were analyzed using a QuantStudioTM 3 real-time PCR instrument with the following program: 1 × (10 min, 48.0 °C; 10 min, 95.0 °C); 40 × (30 s, 95.0 °C; 1 min, 60.0 °C). […]
The upregulation of NQO1 mRNA in BEAS-2B cells was measured by qPCR, as previously described.[20] […]

[6] = system: Nrf2-regulated genes (AKR1B10, NQO1, TRXR1, HO-1) in HaCaT human keratinocytes; test: HaCaT cell assay, Western Blotting of Nrf2-regulated proteins; assay type: cell-based; conditions: 24 h; for protein levels of Nrf2-regulated genes by WB: HaCaT, 10 µM; for relative cell potency among the six compounds (WB): HaCaT, 10, 3, 1 µM
[7] = system: IFN signalling in macrophage-derived THP-1 cells; test: Type I IFN signalling after IFNβ stimulation in THP-1 macrophages (WB); assay type: cell-based; conditions: 100 µM, 24 h; IFNβ 500 U/mL 1 h
[8] = system: NLRP3 inflammasome in macrophage-derived THP-1 cells; test: NLRP3 inflammasome / TLR4 activation in THP-1 macrophages (WB, ELISA); assay type: cell-based; conditions: 100 µM, 24 h; for IL-1β release (ELISA) following NLRP3 activation: LPS 100 ng/mL 3 h + nigericin 10 µM 1 h; for IL-1β release (ELISA) following high concentrations of LPS: LPS 2 µg/mL 6 h; for expression of NLRP3 (WB) / total protein levels of pro-IL-1β (WB): LPS or LPS+nigericin stimulation
THP1 cells = assay type: cell-based; conditions: THP-1 WT, 10 and 100 µM, 48 h
Experimental: THP1 cells were exposed to the compounds for 48 hours at 10 and 100 μM. Viability was quantified using
propidium iodide exclusion through flow cytometry. PI-positive cells (dead or necrotic cells) were quantified
through red fluorescence on a BD C6 Accuri flow cytometer using a 488 nm excitation wavelength and an
emission filter of 585 nm ± 40 nm (BD Biosciences). 50,000 events were collected (n = 3 technical replicates
per condition). The experiment was repeated twice. Data are presented as mean ± SEM (n = 4‒10).

[9] = WT, 12 h, CDDO-Me 0.1 µM, SFN, DMF, 24, 28 10 µM, KI-696 1 µM
[10] = WT, 12 h, CDDO-Me 0.1 µM, SFN, DMF, 24, 28 10 µM, KI-696 1 µM, NS = not significant
[11] = Ki (FP), mean, text and figures

human Keap1 Kelch, sequence (Q14145 321-609): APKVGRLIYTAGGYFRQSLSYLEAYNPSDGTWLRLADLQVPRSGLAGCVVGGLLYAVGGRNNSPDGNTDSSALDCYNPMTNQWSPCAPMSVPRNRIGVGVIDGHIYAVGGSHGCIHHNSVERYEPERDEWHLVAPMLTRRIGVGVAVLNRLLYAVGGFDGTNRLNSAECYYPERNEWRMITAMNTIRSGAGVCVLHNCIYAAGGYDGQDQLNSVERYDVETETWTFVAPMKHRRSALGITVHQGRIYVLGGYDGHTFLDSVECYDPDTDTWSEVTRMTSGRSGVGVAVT

Cc1cc2c(cc1C(CC(=O)O)c1ccc3ccc(OCC(=O)NC4CCCCCC4)cc3c1)OCO2 (centres unmarked) [Compound 24]
ISG15 levels (WB) [1]: reduced levels
total STING levels and STING activation (phosphorylated STING and TBK1) (WB) [1]: reduced total STING levels and STING activation
AKR1B10 FC [2]: 6,62 fold
CASP1 FC [2]: 0,65 fold
COL1A1 FC [2]: 1,40 fold
COL4A1 FC [2]: 1,16 fold
COL4A2 FC [2]: 1,10 fold
CYP1B1 FC [2]: 1,14 fold
GPX1 FC [2]: 0,60 fold
GPX4 FC [2]: 1,13 fold
IFNAR1 FC [2]: 0,93 fold
IFNAR2 FC [2]: 1,00 fold
IFNGR1 FC [2]: 0,63 fold
IFNGR2 FC [2]: 0,73 fold
IL1B FC [2]: 0,85 fold
IRF3 FC [2]: 0,96 fold
LAMB1 FC [2]: 5,65 fold
LAMB4 FC [2]: 4,43 fold
MMP8 FC [2]: 0,79 fold
MMP9 FC [2]: 0,91 fold
MMP12 FC [2]: 0,51 fold
NLRP3 FC [2]: 0,79 fold
NOD2 FC [2]: 0,35 fold
NOXA1 FC [2]: 0,41 fold
SOCS1 FC [2]: 2,11 fold
SOCS3 FC [2]: 2,26 fold
SOD1 FC [2]: 0,41 fold
SOD2 FC [2]: 0,59 fold
STAT1 FC [2]: 0,82 fold
TBK1 FC [2]: 0,86 fold
TLR4 FC [2]: 1,17 fold
TNFRSF1B FC [2]: 1,08 fold
TRAP1 FC [2]: 0,82 fold
cGAS FC [2]: 1,36 fold
KEGG pathway analysis of upregulated genes ([2]; WT, 10 µM, 12 h): activated other important gene clusters involved in cytokine receptor interaction and activation of immune cells
Average FC of upregulated Nrf2-dependent genes [2, 9]: 2.7 fold
GCLM fold change vs vehicle [2, 10]: 3.0 fold
HMOX1 fold change vs vehicle [2, 10]: 2.2 fold
SRXN1 fold change vs vehicle [2, 10]: 2.5 fold
TXNRD1 fold change vs vehicle [2, 10]: 2.9 fold
NQO1 upregulation at 24 h ([2]; WT): 1.5 fold
target gene mRNA expression (RT-qPCR) [3]: several‐fold increases in target gene mRNA expression
Ki (human Keap1 Kelch; FP (Ki/nM), Table S2, mean ± SEM, NA: not active (measured up to 4 mM)): 10.1 ± 1.4 nM
Ki (human Keap1 Kelch; [11]): 10 nM
fold difference in affinity (FP) between the enantiomers of 24 (human Keap1 Kelch; Peak 1 vs Peak 2 after chiral HPLC separation): 14 fold
ligand efficiency (LE) (human Keap1 Kelch): 0.30
number of up- or downregulated genes in Nrf2 KO cells [4]: 347 genes
EC50 ([5]; Homo sapiens, BEAS-2B): 0.11 µM
protein levels of Nrf2-regulated genes by WB [6]: strong bands in WB for all tested proteins
relative cell potency among the six compounds (WB) [6]: most potent
IFN signalling (phosphorylated STAT1, IFIT1 protein levels) (WB) [7]: did not affect IFN signalling
NLRP3 inflammasome activation: release of cleaved caspase-1 and cleaved IL-1β in supernatants (WB) [8]: markedly decreased NLRP3 inflammasome activation
cleavage of gasdermin D (GSDMD) (WB) [8]: prevented the cleavage of gasdermin D
IL-1β release (ELISA) following NLRP3 activation [8]: confirmed a decrease
IL-1β release (ELISA) following high concentrations of LPS [8]: no statistical difference was observed
expression of NLRP3 (WB) [8]: markedly reduced
total protein levels of pro-IL-1β (WB) [8]: also reduced
cell viability (THP1 cells): did not reduce cell viability

Cc1cc2c(cc1C(CC(=O)O)c1ccc3ccc(OCC(=O)NC4CCCCCC4)cc3c1)OCCO2 (centres unmarked) [Compound 28]
ISG15 levels (WB) [1]: reduced levels
total STING levels and STING activation (phosphorylated STING and TBK1) (WB) [1]: reduced total STING levels and STING activation
AKR1B10 FC [2]: 4,27 fold
CASP1 FC [2]: 0,59 fold
COL1A1 FC [2]: 1,40 fold
COL4A1 FC [2]: 1,15 fold
COL4A2 FC [2]: 1,11 fold
CYP1B1 FC [2]: 1,04 fold
GPX1 FC [2]: 0,62 fold
GPX4 FC [2]: 1,20 fold
IFNAR1 FC [2]: 0,92 fold
IFNAR2 FC [2]: 0,99 fold
IFNGR1 FC [2]: 0,64 fold
IFNGR2 FC [2]: 0,76 fold
IL1B FC [2]: 0,88 fold
IRF3 FC [2]: 1,03 fold
LAMB1 FC [2]: 4,94 fold
LAMB4 FC [2]: 3,01 fold
MMP8 FC [2]: 0,94 fold
MMP9 FC [2]: 1,03 fold
MMP12 FC [2]: 0,53 fold
NLRP3 FC [2]: 0,79 fold
NOD2 FC [2]: 0,38 fold
NOXA1 FC [2]: 0,50 fold
SOCS1 FC [2]: 1,95 fold
SOCS3 FC [2]: 2,13 fold
SOD1 FC [2]: 1,35 fold
SOD2 FC [2]: 0,68 fold
STAT1 FC [2]: 0,77 fold
TBK1 FC [2]: 1,01 fold
TLR4 FC [2]: 1,04 fold
TNFRSF1B FC [2]: 1,14 fold
TRAP1 FC [2]: 0,86 fold
cGAS FC [2]: 1,29 fold
Average FC of upregulated Nrf2-dependent genes [2, 9]: 2.5 fold
number of upregulated genes (FC >2.0, p-adj <0.05) [2, 9]: 175 genes
GCLM fold change vs vehicle [2, 10]: 3.0 fold
GSR fold change vs vehicle [2, 10]: 2.0 fold
HMOX1 fold change vs vehicle [2, 10]: 2.4 fold
SRXN1 fold change vs vehicle [2, 10]: 2.4 fold
TXNRD1 fold change vs vehicle [2, 10]: 2.9 fold
NQO1 upregulation at 24 h ([2]; WT): 1.5 fold
target gene mRNA expression (RT-qPCR) [3]: several‐fold increases in target gene mRNA expression
Ki (human Keap1 Kelch; [11]): 8.8 nM
ligand efficiency (LE) (human Keap1 Kelch): 0.29
number of up- or downregulated genes in Nrf2 KO cells [4]: 266 genes
EC50 ([5]; Homo sapiens, BEAS-2B): 0.0601 ± 0.0057 µM
EC50 [5]: 0.06 µM
protein levels of Nrf2-regulated genes by WB [6]: strong bands in WB for all tested proteins
relative cell potency among the six compounds (WB) [6]: most potent
IFN signalling (phosphorylated STAT1, IFIT1 protein levels) (WB) [7]: did not affect IFN signalling
NLRP3 inflammasome activation: release of cleaved caspase-1 and cleaved IL-1β in supernatants (WB) [8]: markedly decreased NLRP3 inflammasome activation
cleavage of gasdermin D (GSDMD) (WB) [8]: prevented the cleavage of gasdermin D
IL-1β release (ELISA) following NLRP3 activation [8]: confirmed a decrease
IL-1β release (ELISA) following high concentrations of LPS [8]: no statistical difference was observed
expression of NLRP3 (WB) [8]: markedly reduced
total protein levels of pro-IL-1β (WB) [8]: also reduced
cell viability (THP1 cells): did not reduce cell viability
